Experiments:
Assay type in all cases: in vivo
[1] = system: blackgrass (Alopecurus myosuroides); assay: Test C preemergence, blackgrass; conditions: 0 is no effect, 100 is complete control
Text: Seeds of plant species selected from blackgrass (Alopecurus myosuroides), corn (Zea mays), foxtail, giant (giant foxtail, Setaria faberi), goosegrass (Eleusine indica), kochia (Bassia scoparia), oat, wild (wild oat, Avena fatua), pigweed, palmer (palmer amaranth, Amaranthus palmeri), ragweed (common ragweed, Ambrosia artemisiifolia), ryegrass, Italian (Italian ryegrass, Lolium multiflorum), soybean (Glycine max) and wheat (Triticum aestivum) were planted into a blend of loam soil and sand and treated preemergence with a directed soil spray using test chemicals formulated in a non-phytotoxic solvent mixture which included a surfactant.
At the same time, plants selected from these crop and weed species and also galium (catchweed bedstraw, Galium aparine) and horseweed (Erigeron canadensis) were planted in pots containing the same blend of loam soil and sand and treated with postemergence applications of test chemicals formulated in the same manner. Plants ranged in height from 2 to 10 cm and were in the one- to two-leaf stage for the postemergence treatment. Treated plants and untreated controls were maintained in a greenhouse for 10 or 12 days, after which time all treated plants were compared to untreated controls and visually evaluated for injury. Plant response ratings, summarized in Table A, are based on a 0 to 100 scale where 0 is no effect and 100 is complete control. A dash (-) response means no test result.

[2] = system: corn (Zea mays); assay: Test C preemergence, corn; conditions: 0 is no effect, 100 is complete control
Procedure, shortened: (§1)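 Steps: sow in loam soil blended with sand; treat soil preemergence by directed spray, or treat young plants (2–10 cm, one to two leaves) postemergence; hold in greenhouse 10 or 12 days; rate injury visually relative to untreated controls on a 0–100 scale.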

[3] = system: foxtail, giant (giant foxtail, Setaria faberi); assay: Test C preemergence, giant foxtail; conditions: 0 is no effect, 100 is complete control
Procedure, shortened: (§2)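 Plants grown in a sand and loam soil blend received the formulated test chemicals either as a preemergence soil-directed spray or postemergence at 2 to 10 cm height. After 10 or 12 greenhouse days, injury was assessed visually, with 100 meaning complete control.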

[4] = system: goosegrass (Eleusine indica); assay: Test C preemergence, goosegrass; conditions: 0 is no effect, 100 is complete control
Procedure, shortened: as §1

[5] = system: kochia (Bassia scoparia); assay: Test C preemergence, kochia; conditions: 0 is no effect, 100 is complete control
Procedure, shortened: as §2

[6] = system: oat, wild (wild oat, Avena fatua); assay: Test C preemergence, wild oat; conditions: 0 is no effect, 100 is complete control
Procedure, shortened: as §2

[7] = system: pigweed, palmer (palmer amaranth, Amaranthus palmeri); assay: Test C preemergence, palmer amaranth; conditions: 0 is no effect, 100 is complete control
Procedure, shortened: as §2

[8] = system: ragweed (common ragweed, Ambrosia artemisiifolia); assay: Test C preemergence, ragweed; conditions: 0 is no effect, 100 is complete control
Procedure, shortened: as §1

[9] = system: ryegrass, Italian (Italian ryegrass, Lolium multiflorum); assay: Test C preemergence, Italian ryegrass; conditions: 0 is no effect, 100 is complete control
Procedure, shortened: as §2

[10] = system: soybean (Glycine max); assay: Test C preemergence, soybean; conditions: 0 is no effect, 100 is complete control
Procedure, shortened: as §2

[11] = system: wheat (Triticum aestivum); assay: Test C preemergence, wheat; conditions: 0 is no effect, 100 is complete control
[12] = system: blackgrass (Alopecurus myosuroides); assay: Test C postemergence, blackgrass; conditions: 31 g ai/ha Postemergence; visual injury, 0 to 100 scale (0 no effect, 100 complete control)
Procedure, shortened: as §2

[13] = system: corn (Zea mays); assay: Test C postemergence, corn
[14] = system: foxtail, giant (giant foxtail, Setaria faberi); assay: Test C postemergence, giant foxtail
[15] = system: goosegrass (Eleusine indica); assay: Test C postemergence, goosegrass
Procedure, shortened: as §2

[16] = system: kochia (Bassia scoparia); assay: Test C postemergence, kochia
Procedure, shortened: as §2

[17] = system: oat, wild (wild oat, Avena fatua); assay: Test C postemergence, wild oat
[18] = system: pigweed, palmer (palmer amaranth, Amaranthus palmeri); assay: Test C postemergence, palmer amaranth; conditions: visual injury, 0 to 100 scale (0 no effect, 100 complete control)
Procedure, shortened: as §2

[19] = system: ragweed (common ragweed, Ambrosia artemisiifolia); assay: Test C postemergence, ragweed; conditions: visual injury, 0 to 100 scale (0 no effect, 100 complete control)
Procedure, shortened: as §2

[20] = system: ryegrass, Italian (Italian ryegrass, Lolium multiflorum); assay: Test C postemergence, Italian ryegrass; conditions: visual injury, 0 to 100 scale (0 no effect, 100 complete control)
Procedure, shortened: as §2

[21] = system: soybean (Glycine max); assay: Test C postemergence, soybean; conditions: visual injury, 0 to 100 scale (0 no effect, 100 complete control)
[22] = system: wheat (Triticum aestivum); assay: Test C postemergence, wheat; conditions: visual injury, 0 to 100 scale (0 no effect, 100 complete control)
Procedure, shortened: as §2

[23] = system: galium (catchweed bedstraw, Galium aparine); assay: Test C postemergence, galium
[24] = system: horseweed (Erigeron canadensis); assay: Test C postemergence, horseweed
Procedure, shortened: as §2

[25] = system: barnyardgrass (Echinochloa crusgalli); assay: Test D flooded paddy test, barnyardgrass; design: key: 0 = no effect, 100 = complete control; conditions: 250 g ai/ha, Flood; applied to paddy water at 2-leaf stage; visual rating after 13 days; scale 0 (no effect) to 100 (complete control)
Procedure, shortened: (§3)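 Test compounds applied directly to paddy water after pots were flooded to 3 cm above soil, with plants at 2-leaf stage; depth held throughout. Greenhouse for 13 days, then visual rating versus controls on 0–100 scale (0 no effect, 100 complete control); dash means no result.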

[26] = system: ducksalad (Heteranthera limosa); assay: Test D flooded paddy test, ducksalad; design: key: 0 = no effect, 100 = complete control; conditions: 250 g ai/ha, Flood; applied to paddy water at 2-leaf stage; visual rating after 13 days; scale 0 (no effect) to 100 (complete control)
Procedure, shortened: as §3

[27] = system: rice (Oryza sativa); assay: Test D flooded paddy test, rice; design: key: 0 = no effect, 100 = complete control; conditions: 250 g ai/ha, Flood; applied to paddy water at 2-leaf stage; visual rating after 13 days; scale 0 (no effect) to 100 (complete control)
Procedure, shortened: as §3

[28] = system: sedge, umbrella (small-flower umbrella sedge, Cyperus difformis); assay: Test D flooded paddy test, umbrella sedge; design: key: 0 = no effect, 100 = complete control; conditions: 250 g ai/ha, Flood; applied to paddy water at 2-leaf stage; visual rating after 13 days; scale 0 (no effect) to 100 (complete control)
Procedure, shortened: as §3

[29] = system: blackgrass (Alopecurus myosuroides); assay: Test C postemergence, blackgrass; conditions: 125 g ai/ha Postemergence; 0 is no effect, 100 is complete control
[30] = 31 g ai/ha Postemergence, visual injury, 0 to 100 scale (0 no effect, 100 complete control)
[31] = 125 g ai/ha Postemergence, 0 is no effect, 100 is complete control

For `Cc1c(NS(=O)(=O)C(F)(F)F)cc(N2CCCC(OC3CC3)C2=O)c(C)c1F` (stereo not shown) [Compound 35], the “Plant response rating (0 to 100 scale), Blackgrass” value ([1]; 31 g ai/ha Preemergence) was 70, the “Plant response rating (0 to 100 scale), Blackgrass” value ([1]; 125 g ai/ha Preemergence) was 100 and the “Plant response rating (0 to 100 scale), Corn” value ([2]; 31 g ai/ha Preemergence) was 30. The “Plant response rating (0 to 100 scale), Corn” value ([2]; 125 g ai/ha Preemergence) was 50, the “Plant response rating (0 to 100 scale), Foxtail, Giant” value ([3]; 31 g ai/ha Preemergence) was 90 and the “Plant response rating (0 to 100 scale), Foxtail, Giant” value ([3]; 125 g ai/ha Preemergence) was 100. The “Plant response rating (0 to 100 scale), Goosegrass” value ([4]; 31 g ai/ha Preemergence) was 100, the “Plant response rating (0 to 100 scale), Goosegrass” value ([4]; 125 g ai/ha Preemergence) was 100 and the “Plant response rating (0 to 100 scale), Kochia” value ([5]; 31 g ai/ha Preemergence) was 20. The “Plant response rating (0 to 100 scale), Kochia” value ([5]; 125 g ai/ha Preemergence) was 80, the “Plant response rating (0 to 100 scale), Oat, Wild” value ([6]; 31 g ai/ha Preemergence) was 20 and the “Plant response rating (0 to 100 scale), Oat, Wild” value ([6]; 125 g ai/ha Preemergence) was 90. The “Plant response rating (0 to 100 scale), Pigweed, Palmer” value ([7]; 31 g ai/ha Preemergence) was 100, the “Plant response rating (0 to 100 scale), Pigweed, Palmer” value ([7]; 125 g ai/ha Preemergence) was 100 and the “Plant response rating (0 to 100 scale), Ragweed” value ([8]; 31 g ai/ha Preemergence) was 50. For the same compound, the “Plant response rating (0 to 100 scale), Ragweed” value ([8]; 125 g ai/ha Preemergence) was 90, the “Plant response rating (0 to 100 scale), Ryegrass, Italian” value ([9]; 31 g ai/ha Preemergence) was 100 and the “Plant response rating (0 to 100 scale), Ryegrass, Italian” value ([9]; 125 g ai/ha Preemergence) was 100. The “Plant response rating (0 to 100 scale), Soybean” value ([10]; 31 g ai/ha Preemergence) was 50, the “Plant response rating (0 to 100 scale), Soybean” value ([10]; 125 g ai/ha Preemergence) was 90 and the “Plant response rating (0 to 100 scale), Wheat” value ([11]; 31 g ai/ha Preemergence) was 20. The “Plant response rating (0 to 100 scale), Wheat” value ([11]; 125 g ai/ha Preemergence) was 100, the “Blackgrass plant response rating” value [12] was 50 and the “Corn plant response rating” value [13, 30] was 50. The “Plant response rating (0 to 100 scale), Corn” value [13, 31] was 90, the “Foxtail, Giant plant response rating” value [14, 30] was 40 and the “Plant response rating (0 to 100 scale), Foxtail, Giant” value [14, 31] was 90. For the same compound, the “Goosegrass plant response rating” value [15, 30] was 70, the “Plant response rating (0 to 100 scale), Goosegrass” value [15, 31] was 90 and the “Kochia plant response rating” value [16, 30] was 50. The “Plant response rating (0 to 100 scale), Kochia” value [16, 31] was 90, the “Oat, Wild plant response rating” value [17, 30] was 40 and the “Plant response rating (0 to 100 scale), Oat, Wild” value [17, 31] was 70. The “Pigweed, Palmer plant response rating” value ([18]; 31 g ai/ha Postemergence) was 40, the “Pigweed, Palmer plant response rating” value ([18]; 125 g ai/ha Postemergence) was 70 and the “Ragweed plant response rating” value ([19]; 31 g ai/ha Postemergence) was 60. For the same compound, the “Ragweed plant response rating” value ([19]; 125 g ai/ha Postemergence) was 90, the “Ryegrass, Italian plant response rating” value ([20]; 31 g ai/ha Postemergence) was 50 and the “Ryegrass, Italian plant response rating” value ([20]; 125 g ai/ha Postemergence) was 60. The “Soybean plant response rating” value ([21]; 31 g ai/ha Postemergence) was 60, the “Soybean plant response rating” value ([21]; 125 g ai/ha Postemergence) was 60 and the “Wheat plant response rating” value ([22]; 31 g ai/ha Postemergence) was 60. The “Wheat plant response rating” value ([22]; 125 g ai/ha Postemergence) was 60, the “Galium plant response rating” value [23, 30] was 70 and the “Plant response rating (0 to 100 scale), Galium” value [23, 31] was 100. The “Horseweed plant response rating” value [24, 30] was 90, the “Plant response rating (0 to 100 scale), Horseweed” value [24, 31] was 100 and the “Plant response rating, Barnyardgrass” value [25] was 0. The “Plant response rating, Ducksalad” value [26] was 55, the “Plant response rating, Rice” value [27] was 0 and the “Plant response rating, Sedge, Umbrella” value [28] was 95. For the same compound, the “Plant response rating (0 to 100 scale), Blackgrass” value [29] was 60.
